Laboratory results: patent US10167299B2, “1-(3-aminopropyl) substituted cyclic amine compounds, preparation method therefor, and pharmaceutical compositions and uses thereof” (SHANGHAI INSTITUTE OF MATERIA MEDICA, CHINESE ACADEMY OF …, priority 2013, dated 2019)
Like-named read-outs stand apart in the source and are kept apart here.

Molecular target: CCR5 (Homo sapiens (Human), UniProt P51681)
Experiment: Calcium flux inhibition experiment
Format: cell-based
Conditions: for calcium influx inhibition effect in words, versus positive control compounds: conclusion from Table 1
Source text: Experiment apparatus: FlexStation II
Experiment materials: HEK293/CCR5-Gα16 cell line, Fluo-4calcium dye (fluorescent-4 calcium ion dye) and FlexStation instrument.
Experiment theory: Activation of the receptor can cause the activation of Gα16 protein, thereby activating phospholipase C (PLC) to generate IP3 and DAG by establishing CCR5 and Ga16 co-transfected cell line. IP3 can bind to IP3 receptors on the endoplasmic reticulum and mitochondria in a cell, which can cause the release of intracellular calcium. Thus, determination of changes in intracellular calcium can be used as a method to detect CCR5 activation state. Fluo-4/AM is a fluorescent probe indicator for calcium used to measure calcium ion. As a non-polar lipid-soluble compound, after it enters into cells, AM group is dissociated to release Fluo-4 under the effect of cell lipolysis enzyme. Fluo-4 is a polar molecule and not easy to go through the lipid bilayer membrane, therefore it can stay within the cells for a long time. Ultimately, the level of activated Ga protein can be reflected by measuring the excited fluorescence intensity. If the screened compound can activate CCR5, it can greatly increase the calcium flux reaction; on the contrary, if the screened compound can antagonize CCR5, it can greatly reduce calcium flux reaction.
1. HEK293 cells which can stably express CCR5 were inoculated in a 96-well plate and incubated overnight.
2. The medium in each well into which cells were innoculated was removed and 40 μl/well of freshly prepared dye was added. The plate was placed in a 37° C. incubator and incubated for 40 minutes at constant temperature.
3. The medicament to be determined was diluted with calcium buffer to eight concentration gradients, which is 1×10^−4 M, 1×10^−5 M, 1×10^−6 M, 1×10^−7 M, 1×10^−8 M, 1×10^−9 M, 1×10^−10 M, and 1×10^−11 M, respectively, and homogeneously mixed.
4. The dye was removed. Freshly prepared calcium buffer was used to wash for one time, 50 μl of calcium buffer was added.
5. FlexStation II was used for detection. 25 μl of calcium buffer containing the medicament to be determined was added automatically from the 15th second.

[1] = HEK293/CCR5-Gα16 cell line, calcium flux, read-out: CCR5 IC50

Chain of CCR5 (P51681 whole entry): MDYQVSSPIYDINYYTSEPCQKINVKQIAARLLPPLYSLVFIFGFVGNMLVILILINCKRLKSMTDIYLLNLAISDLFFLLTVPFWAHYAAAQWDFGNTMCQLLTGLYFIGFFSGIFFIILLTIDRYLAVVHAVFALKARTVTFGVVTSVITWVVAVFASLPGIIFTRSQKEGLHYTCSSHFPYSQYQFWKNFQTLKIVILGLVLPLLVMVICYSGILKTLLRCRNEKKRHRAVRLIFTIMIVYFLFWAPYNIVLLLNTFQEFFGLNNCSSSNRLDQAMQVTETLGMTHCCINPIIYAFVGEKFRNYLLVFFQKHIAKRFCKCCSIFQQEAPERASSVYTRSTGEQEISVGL

| SMILES | IC50 | calcium influx inhibition effect in words, versus positive control compounds | IC50 [1] |
| --- | --- | --- | --- |
| Cc1nnc(C(C)C)n1C1CC2CCC(C1)N2CC[C@H](NC(=O)Cn1ncnn1)c1ccc(C#N)s1 (stereo partly drawn) [Compound 155, N-[(1S)-3-[exo-3-(3-isopropyl-5-methyl-4H-1,2,4-triazol-4-yl)-8-azabicyclo[3.2.1]octane-8-yl]-1-(5-cyanothiophen-2-yl)propyl]-2-(2H-tetrazol-2-yl)acetamide] | 8.23 nM | comparable to the positive control compounds |  |
| Cc1nnc(C(C)C)n1C1CC2CCC(C1)N2CC[C@H](NC(=O)CC#N)c1ccc(C#N)s1 (stereo partly drawn) [Compound 167, N-[(1S)-3-[exo-3-(3-isopropyl-5-methyl-4H-1,2,4-triazol-4-yl)-8-azabicyclo[3.2.1]octane-8-yl]-1-(5-cyanothiophen-2-yl)propyl]-2-cyanoacetamide] | 7.98 nM |  |  |
| CNC(=O)c1ccc([C@H](CCN2C3CCC2CC(n2c(C)nnc2C(C)C)C3)NC(=O)C2CCCCC2)s1 (stereo partly drawn) [Compound 141, 5-[(1S)-1-(cyclohexaneformamido)-3-[exo-3-(3-isopropyl-5-methyl-4H-1,2,4-triazol-4-yl)-8-azabicyclo[3.2.1]octane-8-yl]-propyl]-N-methylthiophene-2carboxamide] |  | comparable to the positive control compounds | 8.36 nM |
| COc1ccc([C@H](CCN2C3CCC2CC(n2c(C)nnc2C(C)C)C3)NC(=O)CC#N)s1 (stereo partly drawn) [Compound 166, N-[(1S)-3-[exo-3-(3-isopropyl-5-methyl-4H-1,2,4-triazol-4-yl)-8-azabicyclo[3.2.1]octane-8-yl]-1-(5-methoxythiophen-2-yl)propyl]-2-cyanoacetamide] | 6.54 nM | better than the positive control compounds |  |
| Cc1nnc(C(C)C)n1C1CC2CCC(C1)N2CC[C@H](NC(=O)C1CCCCC1)c1nccs1 (stereo partly drawn) [Compound 116, N-[(1S)-3-[exo-3-(3-isopropyl-5-methyl-4H-1,2,4-triazol-4-yl)-8-azabicyclo[3.2.1]octane-8-yl]-1-(thiazol-2-yl)propyl]cyclohexane-1-carboxamide] |  |  | 15.6 nM |
| Cc1nnc(C(C)C)n1C1CC2CCC(C1)N2CC[C@H](NC(=O)Cc1nnn[nH]1)c1ccc(Cl)s1 (stereo partly drawn) [Compound 162, N-[(1S)-3-[exo-3-(3-isopropyl-5-methyl-4H-1,2,4-triazol-4-yl)-8-azabicyclo[3.2.1]octane-8-yl]-1-(5-chlorothiophen-2-yl)propyl]-2-(1H-tetrazol-5-yl)acetamide] |  | better than the positive control compounds | 1.85 nM |
| CCC(=O)N[C@@H](CCN1C2CCC1CC(n1c(C)nc3c1CCN(C(C)=O)C3)C2)c1nccs1 (stereo partly drawn) [Compound 124, N-{(1S)-3-[(3-endo)-3-(5-acetyl-2-methyl-4,5,6,7-tetrahydro-1H-imidazo[4,5-c]pyridin-1-yl)-8-azabicyclo[3.2.1]octane-8-yl]-1-(thiazol-2-yl)-propyl}propanamide] |  | better than the positive control compounds | 11.2 nM |
| Cc1ccc([C@H](CCN2C3CCC2CC(n2c(C)nnc2C(C)C)C3)NC(=O)Cc2nnn[nH]2)s1 (stereo partly drawn) [Compound 159, N-[(1S)-3-[exo-3-(3-isopropyl-5-methyl-4H-1,2,4-triazol-4-yl)-8-azabicyclo[3.2.1]octane-8-yl]-1-(5-methylthiophen-2-yl)propyl]-2-(1H-tetrazol-5-yl)acetamide] |  | comparable to the positive control compounds | 8.76 nM |
| CNC(=O)c1ccc([C@H](CCN2C3CCC2CC(n2c(C)nnc2C(C)C)C3)NC(=O)C2CCCC2)s1 (stereo partly drawn) [Compound 142, 5-[(1S)-1-(cyclopentaneformamido)-3-[exo-3-(3-isopropyl-5-methyl-4H-1,2,4-triazol-4-yl)-8-azabicyclo[3.2.1]octane-8-yl]-propyl]-N-methylthiophene-2carboxamide] |  | comparable to the positive control compounds | 9.55 nM |
